One compound from US20230241188A1 (priority 2020, published 2023) can be followed below.

The subject of this test is spike mutant (ΔS) SARS-CoV-2 strain (EPI_ISL_578177). The format is cell-based.

Take `CC(=O)N[C@@H](CS)C(=O)O` [Acetylcysteine, acetylcysteine]: the “viral inhibition (CPE, optical and Neutral Red cell staining)” value is “no viral inhibition”.
